From patent publication US7268136B2, “Compositions useful as inhibitors of protein kinases” (Vertex Pharmaceuticals Incorporated, priority 2002, dated 2007)

Assays:
Assay type in all cases: biochemical
PIM-1 = PIM-1 (Homo sapiens, UniProt P11309); assay: Inhibition of PIM-1, standard coupled enzyme assay
Experimental: Reactions were carried out in 100 mM HEPES pH 7.5, 10 mM MgCl2, 25 mM NaCl, 1 mM DTT, 20 μg/ml BSA and 1.5% DMSO. […] Assays were carried out at 30° C. and 50 nM PIM-1.
An assay stock buffer solution was prepared containing all of the reagents listed above, with the exception of PIM-1, DTT, BSA and the test compound of interest. 56 μl of the test reaction was placed in a 384 well plate followed by addition of 1 μl of 2 mM DMSO stock containing the test compound (final compound concentration 30 μM). The plate was preincubated for ˜10 minutes at 30° C. and the reaction initiated by addition of 10 μl of enzyme in DTT and BSA (final concentrations: 50 nM PIM-1, 1 mM DTT, and 20 μg/ml BSA). Rates of reaction were obtained using a BioRad Ultramark plate reader (Hercules, Calif.) over a 5 minute read time at 30° C.

GSK-3β (AA 1-420) = target: T1, GSK-3β (AA 1-420) (Homo sapiens, UniProt P49841); assay: Inhibition of GSK-3, standard coupled enzyme system; conditions: 20 μM ATP, 300 μM peptide, 20 nM GSK-3β, 30° C.
T1 construct: GSK-3β (AA 1-420)
Experimental: Compounds were screened for their ability to inhibit GSK-3β (AA 1-420) activity using a standard coupled enzyme system (Fox et al. (1998) Protein Sci. 7, 2249). Reactions were carried out in a solution containing 100 mM HEPES (pH 7.5), 10 mM MgCl2, 25 mM NaCl, 300 μM NADH, 1 mM DTT and 1.5% DMSO. Final substrate concentrations in the assay were 20 μM ATP (Sigma Chemicals, St Louis, Mo.) and 300 μM peptide (American Peptide, Sunnyvale, Calif.). Reactions were carried out at 30° C. and 20 nM GSK-3β. Final concentrations of the components of the coupled enzyme system were 2.5 mM phosphoenolpyruvate, 300 μM NADH, 30 μg/ml pyruvate kinase and 10 μg/ml lactate dehydrogenase. An assay stock buffer solution was prepared containing all of the reagents listed above with the exception of ATP and the test compound of interest. The assay stock buffer solution (175 μl) was incubated in a 96 well plate with 5 μl of the test compound of interest at final concentrations spanning 0.002 μM to 30 μM at 30° C. for 10 min. Typically, a 12 point titration was conducted by preparing serial dilutions (from 10 mM compound stocks) with DMSO of the test compounds in daughter plates. The reaction was initiated by the addition of 20 μl of ATP (final concentration 20 μM). Rates of reaction were obtained using a Molecular Devices Spectramax plate reader (Sunnyvale, Calif.) over 10 min at 30° C. The Ki values were determined from the rate data as a function of inhibitor concentration.

human Src kinase = target: T2, human Src kinase (Homo sapiens, UniProt P12931); assay: Inhibition of SRC, radioactivity-based assay or spectrophotometric assay; conditions: full length recombinant human Src kinase, poly Glu-Tyr substrate; assay A or B not specified
T2 construct: full length recombinant human Src kinase (from Upstate Biotechnology, cat. no. 14-117); purchased Upstate Biotechnology 14-117; host or cells: baculo viral cells (baculovirus expression)
Experimental: The compounds are evaluated as inhibitors of human Src kinase using either a radioactivity-based assay or spectrophotometric assay.
Src Inhibition Assay A: Radioactivity-based Assay
The compounds are assayed as inhibitors of full length recombinant human Src kinase (from Upstate Biotechnology, cat. no. 14-117) expressed and purified from baculo viral cells. Src kinase activity is monitored by following the incorporation of ^33P from ATP into the tyrosine of a random poly Glu-Tyr polymer substrate of composition, Glu:Tyr=4:1 (Sigma, cat. no. P-0275). The following are the final concentrations of the assay components: 0.05 M HEPES, pH 7.6, 10 mM MgCl2, 2 mM DTT, 0.25 mg/ml BSA, 10 μM ATP (1-2 μCi ^33P-ATP per reaction), 5 mg/ml poly Glu-Tyr, and 1-2 units of recombinant human Src kinase. In a typical assay, all the reaction components with the exception of ATP are pre-mixed and aliquoted into assay plate wells. Inhibitors dissolved in DMSO are added to the wells to give a final DMSO concentration of 2.5%. The assay plate is incubated at 30° C. for 10 min before initiating the reaction with ^33P-ATP. After 20 min of reaction, the reactions are quenched with 150 μl of 10% trichloroacetic acid (TCA) containing 20 mM Na3PO4. The quenched samples are then transferred to a 96-well filter plate (Whatman, UNI-Filter GF/F Glass Fiber Filter, cat no. 7700-3310) installed on a filter plate vacuum manifold. Filter plates are washed four times with 10% TCA containing 20 mM Na3PO4 and then 4 times with methanol. 200 μl of scintillation fluid is then added to each well. The plates were sealed and the amount of radioactivity associated with the filters is quantified on a TopCount scintillation counter. The radioactivity incorporated is plotted as a function of the inhibitor concentration. The data is fitted to a competitive inhibition kinetics model to get the Ki for the compound.
Src Inhibition Assay B: Spectrophotometric Assay
The ADP produced from ATP by the human recombinant Src kinase-catalyzed phosphorylation of poly Glu-Tyr substrate is quantified using a coupled enzyme assay (Fox et al (1998) Protein Sci 7, 2249). In this assay one molecule of NADH is oxidised to NAD for every molecule of ADP produced in the kinase reaction. The disappearance of NADH is conveniently followed at 340 nm.
The following are the final concentrations of the assay components: 0.025 M HEPES, pH 7.6, 10 mM MgCl2, 2 mM DTT, 0.25 mg/ml poly Glu-Tyr, and 25 nM of recombinant human Src kinase. […]
In a typical assay, all the reaction components with the exception of ATP are pre-mixed and aliquoted into assay plate wells. […] The absorbance change at 340 nm with time, the rate of the reaction, is monitored on a molecular devices plate reader. […]

CDK-2/Cyclin A = CDK-2/Cyclin A (Homo sapiens, UniProt P24941); assay: Inhibition of CDK-2, standard coupled enzyme assay; conditions: 100 μM ATP, 100 μM peptide, 25 nM CDK-2/Cyclin A, 30° C.
Experimental: Compounds were screened for their ability to inhibit CDK-2/Cyclin A using a standard coupled enzyme assay (Fox et al (1998) Protein Sci 7, 2249). Reactions were carried out in 100 mM HEPES pH 7.5, 10 mM MgCl2, 25 mM NaCl, 1 mM DTT and 1.5% DMSO. Final substrate concentrations in the assay were 100 μM ATP (Sigma chemicals) and 100 μM peptide (American Peptide, Sunnyvale, Calif.). Assays were carried out at 30° C. and 25 nM CDK-2/Cyclin A. Final concentrations of the components of the coupled enzyme system were 2.5 mM phosphoenolpyruvate, 350 μM NADH, 30 μg/ml pyruvate kinase and 10 μg/ml lactate dehydrogenase.
An assay stock buffer solution was prepared containing all of the reagents listed above, with the exception of CDK-2/Cyclin A, DTT and the test compound of interest. 56 μl of the test reaction was placed in a 384 well plate followed by addition of 1 μl of 2 mM DMSO stock containing the test compound (final compound concentration 30 μM). The plate was preincubated for ˜10 minutes at 30° C. and the reaction initiated by addition of 10 μl of enzyme (final concentration 25 nM). Rates of reaction were obtained using a BioRad Ultramark plate reader (Hercules, Calif.) over a 5 minute read time at 30° C. Ki values were determined according to standard methods.

T1 sequence (P49841 whole entry, the tested form may be a part): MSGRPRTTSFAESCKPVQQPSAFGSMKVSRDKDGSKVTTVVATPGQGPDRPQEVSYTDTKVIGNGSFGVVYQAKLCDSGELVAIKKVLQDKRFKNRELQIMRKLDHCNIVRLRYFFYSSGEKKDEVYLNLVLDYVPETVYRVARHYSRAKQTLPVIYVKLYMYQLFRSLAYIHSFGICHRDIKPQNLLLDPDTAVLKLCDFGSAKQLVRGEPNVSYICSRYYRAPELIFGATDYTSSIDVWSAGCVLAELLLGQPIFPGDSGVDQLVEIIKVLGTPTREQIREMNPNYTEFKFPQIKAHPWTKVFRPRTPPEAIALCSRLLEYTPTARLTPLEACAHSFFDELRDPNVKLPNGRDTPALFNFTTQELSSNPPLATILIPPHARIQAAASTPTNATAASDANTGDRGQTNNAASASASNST
PIM-1, sequence (P11309 whole entry): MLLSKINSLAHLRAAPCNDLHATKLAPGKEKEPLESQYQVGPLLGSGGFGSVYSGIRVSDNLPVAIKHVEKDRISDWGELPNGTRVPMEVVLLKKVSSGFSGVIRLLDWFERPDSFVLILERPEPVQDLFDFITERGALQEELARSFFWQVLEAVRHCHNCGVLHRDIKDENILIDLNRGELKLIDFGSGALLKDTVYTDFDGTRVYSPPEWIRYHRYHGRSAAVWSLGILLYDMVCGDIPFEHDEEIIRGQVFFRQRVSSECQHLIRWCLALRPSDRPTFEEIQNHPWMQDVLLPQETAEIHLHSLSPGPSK
T2 sequence (P12931 whole entry): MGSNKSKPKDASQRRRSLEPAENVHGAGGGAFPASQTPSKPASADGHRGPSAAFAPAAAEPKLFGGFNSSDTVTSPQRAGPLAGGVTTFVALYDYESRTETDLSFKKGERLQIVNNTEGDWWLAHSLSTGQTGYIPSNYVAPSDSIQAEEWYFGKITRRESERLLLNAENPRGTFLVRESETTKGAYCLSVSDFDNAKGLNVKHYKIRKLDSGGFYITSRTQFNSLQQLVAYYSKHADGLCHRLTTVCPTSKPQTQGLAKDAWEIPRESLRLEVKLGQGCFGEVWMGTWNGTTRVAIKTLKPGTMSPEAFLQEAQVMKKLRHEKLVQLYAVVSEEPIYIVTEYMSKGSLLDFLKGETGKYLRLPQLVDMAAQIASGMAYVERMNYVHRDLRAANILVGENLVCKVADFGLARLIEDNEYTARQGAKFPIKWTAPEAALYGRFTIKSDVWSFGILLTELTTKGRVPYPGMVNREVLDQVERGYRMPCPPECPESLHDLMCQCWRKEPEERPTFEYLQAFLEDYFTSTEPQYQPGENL

| Structure (SMILES) | IC50 (PIM-1) [nM] | Ki (GSK-3β (AA 1-420)) [nM] | further results |
| --- | --- | --- | --- |
| COc1ccc(-c2nnc3ccc(NC4CC4)nn23)cc1 [Compound I-24] | < 1000 |  |  |
| N#Cc1cccc(-c2nnc3ccc(NCC(N)=O)nn23)c1 [Compound I-40] |  | < 2000 |  |
| COc1ccc(Nc2nnc3ccc(OC)nn23)c(OC)c1 [Compound I-85] |  | < 2000 |  |
| FC(F)(F)c1cccc(-c2nnc3ccc(NC4CC4)nn23)c1 [Compound I-18] | < 1000 | < 2000 |  |
| N#Cc1ccc(-c2nnc3ccc(NCC(N)=O)nn23)cc1 [Compound I-37] |  | < 2000 |  |
| COc1cccc(-c2nnc3ccc(NCC(N)=O)nn23)c1 [Compound I-39] |  | < 2000 |  |
| COc1ccc2nnc(Nc3cc(OC)c(OC)c(OC)c3)n2n1 [Compound I-86] |  | < 2000 |  |
| Fc1cccc(-c2nnc3ccc(NC4CC4)nn23)c1 [Compound I-20] | < 1000 |  |  |
| COc1cccc(-c2nnc3ccc(NC4CC4)nn23)c1 [Compound I-28] | < 1000 |  | Ki (human Src kinase): < 5 µM |
| COc1ccc(Nc2nnc3ccc(OC)nn23)cc1 [Compound I-66] |  | < 2000 |  |
| COc1ccc2nnc(Nc3ccccc3OC)n2n1 [Compound I-68] |  |  | Ki (CDK-2/Cyclin A): < 2000 nM |
| COc1ccc2nnc(Nc3ccc(C#N)cc3)n2n1 [Compound I-73] |  |  | Ki (CDK-2/Cyclin A): < 2000 nM |
| COc1ccccc1Nc1nnc2ccc(Sc3ccccc3)nn12 [Compound I-62] |  | < 2000 |  |
| Fc1ccc(-c2nnc3ccc(NC4CC4)nn23)cc1 [Compound I-21] | < 1000 | < 2000 |  |
| COc1ccccc1-c1nnc2ccc(NC3CC3)nn12 [Compound I-29] |  |  | Ki (human Src kinase): < 5 µM |
| FC(F)(F)c1cccc(-c2nnc3ccc(NC4CCCCC4)nn23)c1 [Compound I-26] |  |  | Ki (human Src kinase): < 5 µM |
| FC(F)(F)c1cccc(-c2nnc3ccc(NC4CCC4)nn23)c1 [Compound I-25] | < 1000 |  | Ki (human Src kinase): < 5 µM |
| COc1ccc(-c2nnc3ccc(NCC(N)=O)nn23)cc1 [Compound I-38] |  | < 2000 |  |
